This assay concerns L1210 leukemia ip in BDF1 mice, survival T/C. Briefly: NCI In Vivo Anticancer Drug Screen. Data for tumor model L1210 Leukemia (intraperitoneal) in B6D2F1 (BDF1) mice. The settings on record: endpoint: mean survival time, higher = longer survival. The essentials: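 Transplanted-tumor mice were given test agent; controls received vehicle only. Survival readings from the two groups were divided (treated over control).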

Setting [1] is: dose: 100.0 mg/kg/injection, schedule: Q04DX003 (ip), vehicle: Klucel (hydroxypropylcellulose) (HPC).
The mark [2] stands for this setting: dose: 200.0 mg/kg/injection, schedule: Q04DX003 (ip), vehicle: Klucel (hydroxypropylcellulose) (HPC).
The mark [3] stands for this setting: dose: 100.0 mg/kg/injection, schedule: Q01DX001 (ip), vehicle: saline.
[4] abbreviates: dose: 200.0 mg/kg/injection, schedule: Q01DX001 (ip), vehicle: saline.
[5] abbreviates: dose: 400.0 mg/kg/injection, schedule: Q01DX001 (ip), vehicle: saline.
Setting [6] is: dose: 100.0 mg/kg/injection, schedule: Q04DX002 (ip), vehicle: Klucel (hydroxypropylcellulose) (HPC).
Setting [7] is: dose: 200.0 mg/kg/injection, schedule: Q04DX002 (ip), vehicle: Klucel (hydroxypropylcellulose) (HPC).
Setting [8] is: dose: 400.0 mg/kg/injection, schedule: Q04DX002 (ip), vehicle: Klucel (hydroxypropylcellulose) (HPC).
The mark [9] stands for this setting: dose: 100.0 mg/kg/injection, schedule: Q04DX003 (ip), vehicle: saline with Tween-80.
[10] abbreviates: dose: 200.0 mg/kg/injection, schedule: Q04DX003 (ip), vehicle: saline with Tween-80.
Setting [11] is: dose: 400.0 mg/kg/injection, schedule: Q04DX003 (ip), vehicle: saline with Tween-80.
[12] abbreviates: dose: 100.0 mg/kg/injection, schedule: Q01DX009 (ip), vehicle: Klucel (hydroxypropylcellulose) (HPC).
Where [13] appears, read: dose: 200.0 mg/kg/injection, schedule: Q01DX009 (ip), vehicle: Klucel (hydroxypropylcellulose) (HPC).
Where [14] appears, read: dose: 400.0 mg/kg/injection, schedule: Q01DX009 (ip), vehicle: Klucel (hydroxypropylcellulose) (HPC).
Where [15] appears, read: dose: 400.0 mg/kg/injection, schedule: Q04DX003 (ip), vehicle: Klucel (hydroxypropylcellulose) (HPC).

“And” between values parts separate entries of the source, which are not always exact repeats. Equal values may be shown once. Inconclusive results and toxic doses are left out.

Take `CC(=O)Nc1cc(C(=O)Nc2ccc(C)cc2C)ccc1C`: the T/C by setting is: (dose: 50.0 mg/kg/injection, schedule: Q04DX003 (ip), vehicle: Klucel (hydroxypropylcellulose) (HPC)) 92 % of control; under setting [1], 92 % of control; under setting [2], 92 % of control.

`O=C(Cc1cc2c(cc1[N+](=O)[O-])OCO2)c1c[nH]c2ccc(Br)cc12`: the T/C is 98 % of control (dose: 50.0 mg/kg/injection, schedule: Q01DX001 (ip), vehicle: saline); 92 % of control under setting [3]; 98 % of control under setting [4]; 95 % of control under setting [5].

In the case of `O=C(NSN1CCOCC1)c1ccccc1`, the T/C reads like this: under setting [6], 102 % of control; under setting [7], 98 % of control.

In the case of `CC(=O)Nc1cc(Cl)c2[nH]cnc2n1`, the T/C reads like this: (dose: 88.0 mg/kg/injection, schedule: Q01DX001 (ip), vehicle: Klucel (hydroxypropylcellulose) (HPC)) 100 % of control; (dose: 100.0 mg/kg/injection, schedule: Q01DX001 (ip), vehicle: Klucel (hydroxypropylcellulose) (HPC)) 101 % of control; (dose: 100.0 mg/kg/injection, schedule: Q04DX003 (ip), vehicle: water) 110 % of control; (dose: 133.0 mg/kg/injection, schedule: Q01DX001 (ip), vehicle: Klucel (hydroxypropylcellulose) (HPC)) 90 % of control; (dose: 200.0 mg/kg/injection, schedule: Q01DX001 (ip), vehicle: Klucel (hydroxypropylcellulose) (HPC)) 95 % of control; (dose: 200.0 mg/kg/injection, schedule: Q04DX003 (ip), vehicle: water) 115 % of control. Besides, the T/C (dose: 300.0 mg/kg/injection, schedule: Q01DX001 (ip), vehicle: Klucel (hydroxypropylcellulose) (HPC)) was 97 % of control.

In the case of `CCOC(=O)CCN(C(=O)Nc1ccccc1)C1CCCCC1`, the T/C was 92 % of control (dose: 100.0 mg/kg/injection, schedule: Q01DX Z (ip), vehicle: methylcellulose (MC)) and 97 % of control (dose: 200.0 mg/kg/injection, schedule: Q01DX Z (ip), vehicle: methylcellulose (MC)).

Take `CCc1cc2oc(C)c(C)c2c(N=Nc2ccccc2OC)c1O`: the T/C by setting is: under setting [6], 105 % of control; under setting [7], 102 % of control; under setting [8], 102 % of control.

For the molecule `Cc1ccccc1N`, the T/C reads like this: under setting [9], 101 % of control; under setting [10], 103 % of control; under setting [11], 95 % of control.

For `CN(C)C(=O)C1C2CC3OC(=O)C1C3C2` (configuration not stated), the T/C was 100 % of control and 104 % of control (dose: 100.0 mg/kg/injection, schedule: Q04DX003 (ip), vehicle: saline); 94 % of control and 108 % of control (dose: 200.0 mg/kg/injection, schedule: Q04DX003 (ip), vehicle: saline); 100 % of control and 104 % of control (dose: 400.0 mg/kg/injection, schedule: Q04DX003 (ip), vehicle: saline).

`Cc1c(C2=CC(=O)c3ccccc3C2=O)[nH]c2ccccc12`: the T/C is, setting by setting: (dose: 50.0 mg/kg/injection, schedule: Q01DX001 (ip), vehicle: other) 93 % of control; (dose: 100.0 mg/kg/injection, schedule: Q01DX001 (ip), vehicle: other) 91 % of control; (dose: 200.0 mg/kg/injection, schedule: Q01DX001 (ip), vehicle: other) 102 % of control; (dose: 400.0 mg/kg/injection, schedule: Q01DX001 (ip), vehicle: other) 106 % of control.

On to `Cc1ccc(C)c(NC(=O)Oc2ccc(Cl)c(C)c2)c1`, for which the T/C under setting [6] was 102 % of control, the T/C under setting [7] was 105 % of control and the T/C under setting [8] is 108 % of control.

Consider `C1=Cc2cccc3c2N(C1)CCC3` (tested in a mixture with another compound), for which the T/C (dose: 100.0 mg/kg/injection, schedule: Q01DX009 (ip), vehicle: saline with Tween-80) was 103 % of control; the T/C under setting [9] is 109 % of control; the T/C (dose: 200.0 mg/kg/injection, schedule: Q01DX009 (ip), vehicle: saline with Tween-80) was 107 % of control; the T/C under setting [10] was 93 % of control; the T/C (dose: 400.0 mg/kg/injection, schedule: Q01DX009 (ip), vehicle: saline with Tween-80) was 95 % of control; the T/C under setting [11] was 98 % of control.

`CC(=O)OC(C1SCCCS1)C1CC2C=CC1C2` (configuration not stated): the T/C is 115 % of control under setting [6], 91 % of control under setting [7] and 105 % of control under setting [8].

Regarding `O=C(Nc1ccc(NC2=NCCN2)cc1)c1cccc(C(=O)Nc2ccc(NC3=NCCN3)cc2)c1`, the T/C is 100 % of control (dose: 3.75 mg/kg/injection, schedule: Q01DX Z (ip), vehicle: methylcellulose (MC)); 104 % of control (dose: 7.5 mg/kg/injection, schedule: Q01DX Z (ip), vehicle: methylcellulose (MC)); 116 % of control (dose: 15.0 mg/kg/injection, schedule: Q01DX Z (ip), vehicle: methylcellulose (MC)); 161 % of control (dose: 30.0 mg/kg/injection, schedule: Q01DX Z (ip), vehicle: methylcellulose (MC)).

As to `CCOC(=O)NCC(CCN(C)CC)(c1cccc2ccccc12)C(C)C` (configuration not stated), the T/C runs as follows: (dose: 12.5 mg/kg/injection, schedule: Q01DX009 (ip), vehicle: saline with Tween-80) 93 % of control; (dose: 12.5 mg/kg/injection, schedule: Q04DX003 (ip), vehicle: saline with Tween-80) 93 % of control; (dose: 25.0 mg/kg/injection, schedule: Q01DX009 (ip), vehicle: saline with Tween-80) 98 % of control; (dose: 25.0 mg/kg/injection, schedule: Q04DX003 (ip), vehicle: saline with Tween-80) 98 % of control; (dose: 50.0 mg/kg/injection, schedule: Q04DX003 (ip), vehicle: saline with Tween-80) 93 % of control.

For `CC1CCC(C(C)C)/C(=N/NC(=O)c2ccccc2)C1` (configuration not stated), the T/C under setting [12] is 98 % of control; the T/C under setting [1] was 104 % of control; the T/C under setting [13] is 93 % of control; the T/C under setting [2] is 102 % of control; the T/C under setting [14] is 86 % of control; the T/C under setting [15] was 102 % of control.

In the case of `O=C1CC2CC1C1C(=O)OC(=O)C21` (configuration not stated), the T/C was 91 % of control (dose: 75.0 mg/kg/injection, schedule: Q01DX001 (ip), vehicle: acetone); 104 % of control (dose: 150.0 mg/kg/injection, schedule: Q01DX001 (ip), vehicle: acetone); 98 % of control (dose: 300.0 mg/kg/injection, schedule: Q01DX001 (ip), vehicle: acetone).

In the case of `O=C(OCC#CC#CCOC(=O)c1cccc2ccccc12)c1cccc2ccccc12`, the T/C under setting [12] was 93 % of control, the T/C under setting [13] is 89 % of control and the T/C under setting [14] was 93 % of control.

Take `COC1OC2COC(c3ccccc3)OC2C(O)C1NC(=O)c1ccccc1` (configuration not stated): the T/C by setting is: under setting [1], 110 % of control; under setting [2], 94 % of control; under setting [15], 111 % of control.

Take `CCOC(=O)/C(C#N)=C(/C)C(C)C(=O)OCC` (configuration not stated): the T/C is, setting by setting: under setting [3], 100 % of control; (dose: 100.0 mg/kg/injection, schedule: Q01DX009 (ip), vehicle: saline) 102 % of control; under setting [4], 100 % of control; under setting [5], 96 % of control.

As to `N#CS.[Tl]`, the T/C runs as follows: (dose: 9.5 mg/kg/injection, schedule: Q01DX001 (ip), vehicle: carboxymethylcellulose (CMC)) 92 % of control; (dose: 19.0 mg/kg/injection, schedule: Q01DX001 (ip), vehicle: carboxymethylcellulose (CMC)) 103 % of control; (dose: 38.0 mg/kg/injection, schedule: Q01DX001 (ip), vehicle: carboxymethylcellulose (CMC)) 105 % of control.

In the case of `C=CS(=O)(=O)c1ccc2ccccc2c1`, the T/C reads like this: (dose: 10.0 mg/kg/injection, schedule: Q04DX002 (ip), vehicle: Klucel (hydroxypropylcellulose) (HPC)) 118 % of control; (dose: 20.0 mg/kg/injection, schedule: Q04DX002 (ip), vehicle: Klucel (hydroxypropylcellulose) (HPC)) 96 % of control; (dose: 40.0 mg/kg/injection, schedule: Q04DX002 (ip), vehicle: Klucel (hydroxypropylcellulose) (HPC)) 100 % of control.

`CC[Si](CC)(c1ccccc1)N1CC1`: the T/C was 97 % of control (dose: 25.0 mg/kg/injection, schedule: Q01DX001 (ip), vehicle: carboxymethylcellulose (CMC)) and 101 % of control (dose: 50.0 mg/kg/injection, schedule: Q01DX001 (ip), vehicle: carboxymethylcellulose (CMC)).

`O=C(OCc1ccccc1CN1CCCC1)c1ccc(Cl)cc1`: the T/C reads like this: under setting [6], 111 % of control; under setting [7], 96 % of control; under setting [8], 111 % of control.

(Values after PubChem BioAssay AID248 (DTP/NCI, 2004).)
